The values below come from US9458113B2 (Boehringer Ingelheim International GmbH, priority 2014, dated 2016).

The target of this experiment is Human neutrophil elastase (Homo sapiens (Human), UniProt P08246). Briefly: Human Neutrophil Elastase Assay. It counts as biochemical. As to conditions: substrate MeOSuc-Ala-Ala-Pro-Val-AMC 250 μM, pH 7.5.
Human neutrophil elastase, sequence (P08246 30-247): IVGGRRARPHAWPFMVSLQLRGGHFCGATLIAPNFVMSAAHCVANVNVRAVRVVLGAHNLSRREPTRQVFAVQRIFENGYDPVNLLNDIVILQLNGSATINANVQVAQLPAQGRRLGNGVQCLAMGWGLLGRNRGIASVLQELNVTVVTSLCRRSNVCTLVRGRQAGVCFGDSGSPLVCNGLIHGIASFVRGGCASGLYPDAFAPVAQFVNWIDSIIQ
Procedure: The following buffers were used: Compound buffer: 100 mM Tris, 500 mM NaCl, adjusted to pH 7.5; Assay buffer: 100 mM Tris, 500 mM NaCl, adjusted to pH 7.5, containing 0.01% BSA.
Assay conditions: Test compounds were prediluted in DMSO and subsequently in compound buffer (5% DMSO final). […] After inactivation of the enzyme, fluorescence intensities were measured at 380 nm excitation and 460 nm emission wavelengths.
Each plate contains wells with a high value control (DMSO+enzyme+substrate) and wells with a low value control (DMSO+inactivated enzyme+substrate). IC50 values were estimated using a sigmoidal concentration response curve with variable slope. Means of low values were taken as 0%, means of high values as 100%.
With `CN1C(=O)N(c2cccc(C(F)(F)F)c2)C2=C(C(=O)CC2)C1c1ccc(C#N)cc1C(=O)NCc1ccnnc1` (stereo not shown) [Example 1.49], the IC50 (commonly the midpoint of a concentration-inhibition curve) was found to be 5 nM. Next, `CN(Cc1ccn(C)n1)C(=O)c1cc(C#N)ccc1C1C2=C(CCC2=O)N(c2cccc(C(F)(F)F)c2)C(=O)N1C` (stereo not shown) [Example 1.73]: 1.3 nM. Next, `CN(CCN1CCOCC1)C(=O)c1cc(C#N)ccc1C1C2=C(CCC2=O)N(c2cccc(C(F)(F)F)c2)C(=O)N1C` (stereo not shown) [Example 1.81]: 1.6 nM; `CN1C(=O)N(c2ccnc(C(F)(F)F)c2)C2=C(C(=O)CC2)C1c1ccc(C#N)cc1C(=O)N1CCCCC1` (stereo not shown) [Example 8.4]: 181 nM; `CN1C(=O)N(c2cccc(C(F)(F)F)c2)C2=C(C(=O)CC2)C1c1ccc(C#N)cc1C(=O)NCc1cnoc1` (stereo not shown) [Example 1.42]: 1.9 nM. Regarding `CN1C(=O)N(c2cccc(C(F)(F)F)c2)C2=C(C(=O)CC2)C1c1ccc(C#N)cc1-c1ccn(C)c(=O)c1` (stereo not shown) [Example 11.7], half-maximal inhibition (IC50) was put at 1.2 nM.

`CN1C(=O)N(c2cccc(C(F)(F)F)c2)C2=C(C(=O)CC2)C1c1ccc(C#N)cc1C(=O)NCc1cocn1` (stereo not shown) [Example 1.44]: the IC50 worked out at 3.4 nM. `CN1C(=O)N(c2cccc(C(F)(F)F)c2)C2=C(C(=O)CC2)C1c1ccc(C#N)cc1C(=O)NCCN` (stereo not shown) [Example 4.3] registered a concentration for half-maximal inhibition (IC50) of 3.1 nM. `CN1C(=O)N(c2cccc(C(F)(F)F)c2)C2=C(C(=O)CC2)C1c1ccc(C#N)cc1C(=O)N1CCn2ccnc2C1` (stereo not shown) [Example 1.68] showed an IC50 of under 1 nM.

In the case of `CN1C(=O)N(c2cccc(C(F)(F)F)c2)C2=C(C(=O)CCC2)C1c1ccc(C#N)cc1-c1cn[nH]c1` (stereo not shown) [Example 15.4], the IC50 was 1.6 nM. The compound `CN1C(=O)N(c2cccc(C(F)(F)F)c2)C2=C(C(=O)CCC2)C1c1ccc(C#N)cc1C1=COCC1` (stereo not shown) [Example 15.10] displayed an IC50 of 1.5 nM. Next, `CN1C(=O)N(c2cccc(C(F)(F)F)c2)C2=C(C(=O)CC2)[C@H]1c1ccc(C#N)cc1C(=O)N1CCOCC1` [Example 2.3]: 2.9 nM; `CN1C(=O)N(c2cccc(C(F)(F)F)c2)C2=C(C(=O)CC2)C1c1ccc(C#N)cc1C(=O)NCc1ccon1` (stereo not shown) [Example 1.43]: 2 nM; `CN1C(=O)N(c2cccc(C(F)(F)F)c2)C2=C(C(=O)CC2)C1c1ccc(C#N)cc1-c1ccc(=O)n(C)c1` (stereo not shown) [Example 11.16]: under 1 nM. Next, `CN(Cc1cn[nH]c1)C(=O)c1cc(C#N)ccc1C1C2=C(CCC2=O)N(c2cccc(C(F)(F)F)c2)C(=O)N1C` (stereo not shown) [Example 1.57]: under 1 nM; `CCN1CCN(C(=O)c2cc(C#N)ccc2C2C3=C(CCC3=O)N(c3cccc(C(F)(F)F)c3)C(=O)N2C)CC1` (stereo not shown) [Example 3.2]: 8.1 nM; `CN1C(=O)N(c2cccc(C(F)(F)F)c2)C2=C(C(=O)CC2)C1c1ccc(C#N)cc1C(=O)NC1CCNCC1` (stereo not shown) [Example 4.2]: 7.1 nM. For `CCNC(=O)c1cc(C#N)ccc1C1C2=C(CCC2=O)N(c2cccc(C(F)(F)F)c2)C(=O)N1C` (stereo not shown) [Example 1.2] the value was 5.5 nM; for `CN1C(=O)N(c2cccc(C(F)(F)F)c2)C2=C(C(=O)CC2)C1c1ccc(C#N)cc1C(=O)NCc1nncn1C` (stereo not shown) [Example 1.61], 6 nM; for `CN1C(=O)N(c2cccc(C(F)(F)F)c2)C2=C(C(=O)CC2)C1c1ccc(C#N)cc1C(=O)N1CCC(O)CC1` (stereo not shown) [Example 1.22], 10.3 nM.

Take `CN1C(=O)N(c2cccc(C(F)(F)F)c2)C2=C(C(=O)CC2)C1c1ccc(C#N)cc1C(=O)N1CC(O)C1` (stereo not shown) [Example 1.11]: the IC50 is 2.5 nM. Compound `CC(=O)N(C)[C@H]1CCN(C(=O)c2cc(C#N)ccc2C2C3=C(CCC3=O)N(c3cccc(C(F)(F)F)c3)C(=O)N2C)C1` (stereo partly shown) [Example 1.77] came in with an IC50 of 2.3 nM. For `CN1C(=O)N(c2cccc(C(F)(F)F)c2)C2=C(C(=O)CC2)C1c1ccc(C#N)cc1C(=O)N1CC[C@H](N)C1` (stereo partly shown) [Example 4.7] the value was 3.3 nM; for `COCCCN(C)C(=O)c1cc(C#N)ccc1C1C2=C(CCC2=O)N(c2cccc(C(F)(F)F)c2)C(=O)N1C` (stereo not shown) [Example 1.24], 3.3 nM.

`CN(CCO)C(=O)c1cc(C#N)ccc1C1C2=C(CCC2=O)N(c2cccc(C(F)(F)F)c2)C(=O)N1C` (stereo not shown) [Example 1.13] displayed an IC50 of 2.9 nM. On to `CN1C(=O)N(c2cccc(C(F)(F)F)c2)C2=C(C(=O)CCC2)C1c1ccc(C#N)cc1-c1ccn(C)n1` (stereo not shown) [Example 15.1], for which half-maximal inhibition (IC50) required 2.8 nM. Next, `CN1C(=O)N(c2cccc(C(F)(F)F)c2)C2=C(C(=O)CC2)C1c1ccc(C#N)cc1CNC1CCOCC1` (stereo not shown) [Example 9.3]: 2.9 nM. Next, `CNCCNC(=O)c1cc(C#N)ccc1C1C2=C(CCC2=O)N(c2cccc(C(F)(F)F)c2)C(=O)N1C` (stereo not shown) [Example 4.4]: 4.7 nM; `CN1C(=O)N(c2cccc(C(F)(F)F)c2)C2=C(C(=O)CC2)C1c1ccc(C#N)cc1C1=CCN(C(=O)OC(C)(C)C)CC1` (stereo not shown) [Example 11.6, 4-{5-Cyano-2-[3-methyl-2,5-dioxo-1-(3-trifluoromethyl-phenyl)-2,3,4,5,6,7-hexahydro-1H-cyclopentapyrimidin-4-yl]-phenyl}-3,6-dihydro-2H-pyridine-1-carboxylic acid tert-butyl ester]: 1.7 nM; `CN1C(=O)N(c2cccc(C(F)(F)F)c2)C2=C(C(=O)CC2)C1c1ccc(C#N)cc1C(=O)NCC(C)(C)N` (stereo not shown) [Example 4.11]: 6.2 nM. `CN1C(=O)N(c2cccc(C(F)(F)F)c2)C2=C(C(=O)CC2)C1c1ccc(C#N)cc1C(=O)NCc1ccno1` (stereo not shown) [Example 1.39] displayed an IC50 of 1.9 nM.

`CN1C(=O)N(c2cccc(C(F)(F)F)c2)C2=C(C(=O)CC2)C1c1ccc(C#N)cc1C(=O)NC1CCC(O)C1` (stereo not shown) [Example 3, 5-Cyano-N-(3-hydroxy-cyclopentyl)-2-[3-methyl-2,5-dioxo-1-(3-trifluoromethyl-phenyl)-2,3,4,5,6,7-hexahydro-1H-cyclopentapyrimidin-4-yl]-benzamide] showed an IC50 of 7.6 nM.

The compound `CN1C(=O)N(c2cccc(C(F)(F)F)c2)C2=C(C(=O)CC2)C1c1ccc(C#N)cc1C(=O)N1CCc2nocc2C1` (stereo not shown) [Example 1.69] had an IC50 of 9.8 nM. For `CN1C(=O)N(c2cccc(C(F)(F)F)c2)C2=C(C(=O)CC2)C1c1ccc(C#N)cc1C(=O)N1CCN(C2CC2)CC1` (stereo not shown) [Example 1.33] the value was 10.5 nM; for `CN1C(=O)N(c2cccc(C(F)(F)F)c2)C2=C(C(=O)CC2)C1c1ccc(C#N)cc1C1=CCNCC1` (stereo not shown) [Example 14.2], under 1 nM; for `CC(=O)N1CCN(C(=O)c2cc(C#N)ccc2C2C3=C(CCC3=O)N(c3cccc(C(F)(F)F)c3)C(=O)N2C)CC1` (stereo not shown) [Example 1.85], 4.6 nM.

Regarding `CN1C(=O)N(c2cccc(C(F)(F)F)c2)C2=C(C(=O)CC2)C1c1ccc(C#N)cc1C(=O)N[C@@H]1CCNC1` (stereo partly shown) [Example 4.9], the IC50 is 6.4 nM.

As to `CN1C(=O)N(c2cccc(C(F)(F)F)c2)C2=C(C(=O)CC2)C1c1ccc(C#N)cc1C(=O)NC1CCOC1` (stereo not shown) [Example 1.18], half-maximal inhibition (IC50) was put at 6.9 nM.

In turn, `CN1C(=O)N(c2cccc(C(F)(F)F)c2)C2=C(C(=O)CC2)C1c1ccc(C#N)cc1C(=O)N1C[C@H]2C[C@@H]1C[N+]2(C)C` (stereo partly shown) [Example 3.5] came in with an IC50 of 7 nM. Compound `CN1C(=O)N(c2cccc(C(F)(F)F)c2)C2=C(C(=O)CC2)C1c1ccc(C#N)cc1-c1cccnc1` (stereo not shown) [Example 11.10] showed an IC50 of 3.1 nM. For `CN1C(=O)N(c2cccc(C(F)(F)F)c2)C2=C(C(=O)CC2)C1c1ccc(C#N)cc1C(=O)N[C@H]1CCNC1` (stereo partly shown) [Example 4.6] the value was 6.9 nM.

As for `CN1C(=O)N(c2ccnc(C(F)(F)F)c2)C2=C(C(=O)CC2)C1c1ccc(C#N)cc1-c1ccn(C)c(=O)c1` (stereo not shown) [Example 17.3], the IC50 was 10.6 nM. Next, `CN1C(=O)N(c2cccc(C(F)(F)F)c2)C2=C(C(=O)CC2)C1c1ccc(C#N)cc1C1=CCOCC1` (stereo not shown) [Example 11.11]: under 1 nM; `CN(Cc1ccno1)C(=O)c1cc(C#N)ccc1C1C2=C(CCC2=O)N(c2cccc(C(F)(F)F)c2)C(=O)N1C` (stereo not shown) [Example 1.60]: under 1 nM. Next, `CC(C)NCc1cc(C#N)ccc1C1C2=C(CCC2=O)N(c2cccc(C(F)(F)F)c2)C(=O)N1C` (stereo not shown) [Example 9.1]: 2.1 nM; `CN1C(=O)N(c2cccc(C(F)(F)F)c2)C2=C(C(=O)CC2)C1c1ccc(C#N)cc1C(=O)NCc1ccc(C#N)o1` (stereo not shown) [Example 1.64]: 6.9 nM. For the compound `CN1C(=O)N(c2cccc(C(F)(F)F)c2)C2=C(C(=O)CC2)C1c1ccc(C#N)cc1C(=O)N1CCCC1` (stereo not shown) [Example 1.10], it took 3.4 nM to reach half-maximal inhibition (IC50). For `CC1CN(C(=O)c2cc(C#N)ccc2C2C3=C(CCC3=O)N(c3cccc(C(F)(F)F)c3)C(=O)N2C)CCN1` (stereo not shown) [Example 4.16], half-maximal inhibition (IC50) required 10.8 nM. `CN1C(=O)N(c2cccc(C(F)(F)F)c2)C2=C(C(=O)CC2)C1c1ccc(C#N)cc1C(=O)NCc1ncco1` (stereo not shown) [Example 1.41] returned an IC50 of 3.8 nM.

`CN(C)CCNC(=O)c1cc(C#N)ccc1C1C2=C(CCC2=O)N(c2cccc(C(F)(F)F)c2)C(=O)N1C` (stereo not shown) [Example 1.29] showed an IC50 of 4.8 nM. Next, `CN1C(=O)N(c2cccc(C(F)(F)F)c2)C2=C(C(=O)CC2)C1c1ccc(C#N)cc1C(=O)NCc1nccn1C` (stereo not shown) [Example 1.58]: 2.4 nM. In the case of `CN1C(=O)N(c2cccc(C(F)(F)F)c2)C2=C(C(=O)CCC2)C1c1ccc(C#N)cc1-c1cnn(C)c1` (stereo not shown) [Example 15.2], 2.4 nM corresponded to half-maximal inhibition (IC50). Compound `CN1C(=O)N(c2cccc(C(F)(F)F)c2)C2=C(C(=O)CCC2)C1c1ccc(C#N)cc1-c1ccco1` (stereo not shown) [Example 15.5] registered an IC50 of 5.7 nM. Next, `CC(=O)N(C)[C@@H]1CCN(C(=O)c2cc(C#N)ccc2C2C3=C(CCC3=O)N(c3cccc(C(F)(F)F)c3)C(=O)N2C)C1` (stereo partly shown) [Example 1.78]: 2.6 nM. For `CN1C(=O)N(c2ccnc(C(F)(F)F)c2)C2=C(C(=O)CC2)C1c1ccc(C#N)cc1C1=CCN(C(=O)OC(C)(C)C)CC1` (stereo not shown) [Example 17.2, 4-{5-Cyano-2-[3-methyl-2,5-dioxo-1-(2-trifluoromethyl-pyridin-4-yl)-2,3,4,5,6,7-hexahydro-1H-cyclopentapyrimidin-4-yl]-phenyl}-3,6-dihydro-2H-pyridine-1-carboxylic acid tert-butyl ester] the value was 4.6 nM.
